We go through two compounds from PMC8805316, “NanoBRET in C. elegans illuminates functional receptor interactions in real time” (BMC Molecular and Cell Biology, 2022).

For test [1], the target named is T1, Nluc::NPR-11 (Caenorhabditis elegans, UniProt Q18179).
T1 construct: expressed in transfected cells; host or cells: transgenic C. elegans (extrachromosomal array, npr-11 knockout background), incised young adult worms
The experiment in a line: biochemical. It counts as binding, C. elegans. As for the experimental part:
(§1) All measurements were conducted using synchronized young adult worms (1 day post L4). Individuals were washed twice with HBSS (Hanks’ balanced salt solution with 25 mM HEPES, pH 7.4, 37 °C) and the number of worms/ μl was calculated.
(§2) For luminescence measurements of intact worms, animals (1; 10; 50; 100 or 500) were directly transferred into the wells of a white flat-bottom 384-well plate in 50 μl HBSS buffer. Worms to be cut were pre-washed with M9 + 0.1% Tween to avoid sticking of worms to the dish and subsequently transferred in 2 ml of HBSS. Incisions were made in the middle of the body with a scalpel blade and worms were immediately afterwards transferred with a glass pipette into HBSS buffer on ice. For mechanically cracking, a worm suspension was homogenized in tubes with 150 μl HBSS and six glass beads (Ø = 3 mm) using with a Precellys homogenizer (Bertin instruments, France) for 40 s at 5000 rpm. Samples were placed on ice until further usage.
For BRET binding assays in vivo, the nanoluciferase (Nluc) was applied as energy donor and either peptides labeled with the TAM fluorophore or the mNeonGreen fluorescent protein fused to a receptor served as acceptor.
30 Nluc-expressing worms with incisions in 50 μl BRET buffer were incubated with dissolving buffer or peptide solutions of final concentrations ranging from 0.05–10 μM in a 384-well plate. During a 25 min incubation with gentle shaking, 10 μl Nano-Glo Live Cell Reagent (N2011, Promega, USA) of a 5x stock were added according to manufacturer’s instructions after 15 min to each well. Competition-binding assays were performed similarly, but additionally, unlabeled peptide (final concentrations 0.016–10 μM) was pipetted into each well and 5 μl of a 10x stock Nano-Glo Live cell reagent was applied after 15 min.
Luminescence (L) and fluorescence (F) were detected with a microplate plate reader (Tecan Spark) using the following filter set: donor = 430–470 nm, acceptor = 550–700 nm with 1000 ms integration time. BRET was calculated by dividing F values by L values. For each experiment, the background signal of donor-only cells was subtracted, such that the BRET ratio at 0 μM ligand equals 0.00. In Fig. 3B (left) and Fig. 3D, the mean of n = 4 (NPR-11) or n = 3 (LAT-1) independent, individually background-corrected single experiments is presented.

For test [2], the target named is T2, NPR-11 (Caenorhabditis elegans, UniProt Q18179).
T2 sequence (Q18179 1-402): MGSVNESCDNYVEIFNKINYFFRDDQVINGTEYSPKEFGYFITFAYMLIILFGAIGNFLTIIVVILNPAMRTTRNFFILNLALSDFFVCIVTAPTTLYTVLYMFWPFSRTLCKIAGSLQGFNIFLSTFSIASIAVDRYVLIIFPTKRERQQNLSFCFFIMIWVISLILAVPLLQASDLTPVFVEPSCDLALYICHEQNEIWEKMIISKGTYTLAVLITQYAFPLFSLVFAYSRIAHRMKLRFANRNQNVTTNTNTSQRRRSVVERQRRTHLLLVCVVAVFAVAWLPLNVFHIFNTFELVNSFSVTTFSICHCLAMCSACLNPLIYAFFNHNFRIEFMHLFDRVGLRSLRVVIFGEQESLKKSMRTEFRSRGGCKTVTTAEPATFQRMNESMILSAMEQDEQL
The experiment in a line: cAMP reporter gene assay, transfected HEK293 cells (Fig. S3B). It is filed as cell-based, C. elegans. On the set-up: expressed in transfected cells; host or cells: HEK293 cells, co-transfected with reporter plasmid pGL4.29 [luc2P/CRE/Hygro]. The protocol: All in vitro experiments were carried out using either HEK293 cells (Homo sapiens, embryonic kidney, DSMZ (German Collection of Microorganisms and Cell Cultures) ACC 305) or COS-7 cells (African green monkey, cercopithecus aethiops, kidney, DSMZ (German Collection of Microorganisms and Cell Cultures) ACC 60). HEK293 cells were kept in Dulbecco’s Modified Eagle’s Medium (DMEM) with Ham’s F-12 (v/v) and 15% (v/v) heat-inactivated fetal calf serum (FCS), while COS-7 cells were cultured in DMEM with 10% (v/v) FCS and 1% (v/v) Penicillin-Streptomycin. All cells were kept at 37 °C under a humidified atmosphere (5% CO2).
NPR-11 activation was read out in the Gi/o pathway by a cAMP reporter gene assay in transiently transfected HEK293 cells as described previously. Briefly, HEK293 cells were grown to 70% confluency and transiently co-transfected with the receptor plasmid (2 μg) and the reporter gene plasmid pGL4.29 [luc2P/CRE/Hygro] (Promega; 2 μg) with MetafectenePro (Biontex). Cells were then re-seeded into 384-well plates. On the next day, the medium was removed, and the cells were stimulated with peptide solution (20 μl) containing 5 μM forskolin (stimulating intracellular cAMP levels) in DMEM and incubated for 4 h. Luciferase substrate OneGlo in lysis buffer (Promega) was added and incubated for 5 min. Luminescence was measured in a microplate reader (Tecan Spark). […]
For orientation: A reporter such as luciferase makes a cellular process visible.

In test [3] the target is T2, NPR-11. The following applies: read-out: inhibition binding constant Ki; TAM-FLP-34-1 as fluorescent tracer; ref [35]; cited from earlier work.
The subject of test [4] is NPR-11::Nluc. The experiment in a line: Enhanced bystander BRET in vivo, NPR-11::Nluc and CAAX::mNG (Fig. 4C). On the set-up: species or system C. elegans. The protocol:
Luminescence levels depended on the used strain, reaching (without ligand) approximately 2000 AU in Nluc::npr-11 animals and up to 32,000 AU in Nluc::lat-1 expressing worms. For enhanced bystander BRET analyses, 30 cut worms (APR716 and APR718) in 50 μl HBSS buffer were incubated for 10 min with 10 μl of Nano-Glo Live Cell Reagent (5x stock). Luminescence and fluorescence were measured once prior to peptide stimulation. Afterwards, FLP-34-1 (final concentration 5 μM) or H2O with 0.5% BSA and 2.5% DMSO as control were added to each well and luminescence and fluorescence was measured over the course of 80 min. The acceptor filter for this setting was altered to 505–605 nm, while the donor filter remained at 430–470 nm, as before.
In general terms: Bioluminescence resonance energy transfer reports proximity on the nanometre scale.

Test [5] has as its target T1, Nluc::NPR-11. The experiment in a line: biochemical. It is filed as binding, C. elegans. As for the experimental part:
as §1
as §2, with “usage. […]” for “usage.”
Luminescence (L) and fluorescence (F) were detected with a microplate plate reader (Tecan Spark) using the following filter set: donor = 430–470 nm, acceptor = 550–700 nm with 1000 ms integration time. BRET was calculated by dividing F values by L values. […]
This is another data set of the same source.

Residues, ends and D or L forms follow the SMILES beside them. No end group written: not given here. *: point of attachment. 5TAMRA = CN(C)c1ccc2c(c1)Oc1cc(N(C)C)ccc1C21OC(=O)c2cc(C(=O)*)ccc21

A word on the Kd: it is a measure of binding affinity in units of concentration. Read a high Kd as lower affinity. One may read the EC50 as the concentration at which the effect is half-maximal. Low readings indicate a more potent agent, high ones a less potent agent. With `CC[C@H](C)[C@H](NC(=O)[C@H](C)NC(=O)[C@H](CO)NC(=O)[C@H](C)NC(=O)[C@H](Cc1ccccc1)NC(=O)[C@@H](NC(=O)[C@H](CO)NC(=O)[C@@H](NC(=O)[C@H](CC(=O)O)NC(=O)[C@H](C)NC(=O)c1ccc2c(c1)C(=O)OC21c2ccc(N(C)C)cc2Oc2cc(N(C)C)ccc21)[C@@H](C)CC)[C@@H](C)O)C(=O)N[C@@H](CC(N)=O)C(=O)N[C@@H](CC(N)=O)C(=O)N[C@@H](C)C(=O)NCC(=O)N[C@@H](CCCNC(=N)N)C(=O)N[C@@H](CC(C)C)C(=O)N[C@@H](CCCNC(=N)N)C(=O)N[C@@H](Cc1ccc(O)cc1)C(N)=O` [TAM-FLP-34-1] (5TAMRA-ADISTFASAINNAGRLRY-NH2), the equilibrium dissociation constant (Kd) in test [1] turned out to be 1400 nM. In addition, the EC50 in test [2] was found to be 0.5 nM.

The Ki is the equilibrium dissociation constant of an inhibitor or competing ligand from its target. With ADISTFASAINNAGRLRY-NH2 [FLP-34-1], the Ki in test [3] was 107 nM; in test [5], 1100 nM. In addition, in test [4] (5 μM FLP-34-1), the “time after which BRET increases again” value is reported as above 70 min. Besides, the “change of bystander BRET signal over time” value in test [4] (5 μM FLP-34-1 vs untreated controls) is reported as “decrease of BRET signal”. The compound also came in with an EC50 in test [2] of 2.3 nM.
